Assay results published in patent publication US20090181904A1, “METHOD FOR REGULATING NUTRIENT ABSORPTION WITH GINSENOSIDES” (priority 2005, published 2009).

Key:
Caco-2 cell monolayer = test: Arginine absorption assay (transport across Caco-2 monolayer, 3H-arginine); type: cell-based, human; conditions: for Transport rate (arginine): 10 mM L-arginine
Procedure: In measuring transport of arginine across the Caco-2 cell monolayer, both sides of the transwells were washed with arginine incubation buffer consisting of: 137 mM NaCl, 10 mM Hepes, 0.3 mM NaH2PO4, 0.3 mM K2HPO4, 5.4 mM KCl, 2.8 mM CaCl2, 1 mM MgSO4, 10 mM glucose, adjusted to pH 7.4. Then, the cell layer was pre-incubated in the incubation buffer at 37° C. for 1 h. The volumes of incubation buffer were 0.2 mL and 0.9 mL in the apical and basolateral chambers, respectively. The cells were replaced with fresh incubation medium in both chambers prior to the transport experiment. The transport experiment was initiated by replacing the incubation solution on the apical side with solution containing 10 mM of L-arginine in which 0.125 μCi/mL of L-[^3H]-arginine was included. At designated time intervals, 10 μL-solution samples were removed from the basolateral side and radioactivity of each sample was counted using a microplate liquid scintillation counter (TopCount, Packard NXT). During the experiment, when a 10 μL-solution sample was removed from the basolateral side every time, 10 μL buffer was supplemented to keep the volume constant. The uptake of [^3H]-mannitol was used to correct for nonspecific transport of molecules across the monolayer membrane. Results were expressed as the nanomoles of arginine transport across the Caco-2 cell monolayers with respect to time in minutes (nmol/min).

Caco2 cell monolayer = test: Glucose absorption assay (transport across Caco2 monolayer in transwell, 14C-glucose); type: cell-based, human; conditions: for Transport rate (glucose): 2 days pretreatment, 25 mM glucose
Procedure: For glucose absorption assay, 0.3 mL (10^5 cell/ml) of Caco2 cells were seeded into the apical chamber of each transwell and the basolateral chamber was added with 1 ml of culture medium (as indicated above). Costar transwell inserts (No. 3414, Corning Incorporated, NY, USA) separate each well in 24-well plates into an apical chamber (defined as a chamber above the insert) and a basolateral chamber (defined as a chamber below the insert). The culture medium in each transwell was changed every 2 days in both of the apical and basolateral chambers. To ensure the integrity of tight junction of Caco2 monolayer membrane formed in the transwell, a Trans-Epithelial Electrical Resistance (TEER) assay was conducted using Millicell®-ERS (Millipore EVOM-6; World Precision Instrument, Sarasota, Fla., USA) to measure the TEER between apical and basolateral chambers of the transwell. As the measured TEER reached 300 to 450 Ωcm^2 with the presence of differentiated brush border on the […] side of the cell on the 14th to 21st day of the culture, the Caco2 monolayer was ready for the glucose absorption test. The TEER values were taken before, during, and after each experiment to justify consistency of the data collected.
Glucose absorption was initiated by replacing the culture medium in the basolateral chamber with fresh glucose absorption buffer and the culture medium in the apical chamber with 0.2 mL of the glucose absorption buffer containing 2 μCi/ml of radioactive D-[^14C]-glucose (60 Ci/mmol, American Radiolabeled Chemicals, ARC, St. Louis, Mo., USA) and unlabeled cold glucose to give glucose at a final concentration of 25 mM. A series of five 10-μL samples were taken from the basolateral chamber at every 5 or 10 minute intervals. In order to maintain the constant buffer volume, same amount of sample buffer were added back to the basolateral chamber after withdrawn of each sample. The samples were transferred to the filter-bottomed UniFilter plates (Perkin-Elmer, Wellesley, Mass., USA) and dried in a vacuum oven at 37° C. The bottom of the UniFilter plate was sealed and 25 μL of the counting solution were added into each well. Adhesive plate sealers were used in place of the lids and radioactivity of each sample was counted using the microplate liquid scintillation counter (TopCount, Packard NXT, Packard BioScience Company, Meriden, Conn., USA). The effect of test compounds on glucose absorption was expressed as the nmoles of glucose accumulated in the basolateral chamber with respect to time in minutes (nmol/min). The glucose absorption rate was obtained by calculating the slope of the straight line from the time zero to the end point of the graphic data of each figure.

CC(C)=CCC[C@](C)(O[C@@H]1O[C@H](CO)[C@@H](O)[C@H](O)[C@H]1O)[C@H]1CC[C@]2(C)[C@@H]1[C@H](O)C[C@@H]1[C@@]3(C)CC[C@H](O)C(C)(C)[C@@H]3[C@@H](O[C@@H]3O[C@H](CO)[C@@H](O)[C@H](O)[C@H]3O)C[C@]12C [Rg1, ginsenoside Rg1]
Percentage (arginine transport, control = 100) (Caco-2 cell monolayer; compound 0.01 μM): 126.89% | Transport rate (arginine) (Caco-2 cell monolayer; compound 0.01 μM): 13.5583 ± 1.1940 nmol/min | Percentage (arginine transport, control = 100) (Caco-2 cell monolayer; compound 0.1 μM): 210.91% | Transport rate (arginine) (Caco-2 cell monolayer; compound 0.1 μM): 22.5370 ± 0.8912 nmol/min | Percentage (arginine transport, control = 100) (Caco-2 cell monolayer; compound 1 μM): 171.51% | Transport rate (arginine) (Caco-2 cell monolayer; compound 1 μM): 18.3265 ± 0.8965 nmol/min | effect on glucose absorption (in words) (Caco2 cell monolayer): inhibitory effect | Percentage (glucose transport, control = 100) (Caco2 cell monolayer; compound 0.01 μM): 51.88% | glucose transportation (in words, FIG. 2) (Caco2 cell monolayer; compound 0.01 μM to 1 μM): clearly inhibited | Transport rate (glucose) (Caco2 cell monolayer; compound 0.01 μM): 1.1317 ± 0.1299 nmol/min | Percentage (glucose transport, control = 100) (Caco2 cell monolayer; compound 0.1 μM): 58.51% | Transport rate (glucose) (Caco2 cell monolayer; compound 0.1 μM): 1.2763 ± 0.1907 nmol/min | Percentage (glucose transport, control = 100) (Caco2 cell monolayer; compound 1 μM): 96.68% | Transport rate (glucose) (Caco2 cell monolayer; compound 1 μM): 2.1089 ± 0.2097 nmol/min
